Measurements from patent US8394355B2, “Use of UTP for the diagnosis of stenoses and other conditions of restricted blood flow” (P2 science Aps, priority 2009, dated 2013).
Values joined by “and” are separate entries in the source; they are usually repeats but may differ in a detail not shown here. Equal entries are not always repeated.

System: coronary arteries in humans with coronary artery disease
Experiment: FFR during continuous intracoronary infusion via guiding catheter (Example 2)
Format: in vivo
Set-up: key to lowest FFR level / difference in FFR between adenosine and UTP / FFR / FFR Mean: FFR = Pd/Pa (distal/proximal coronary pressure ratio)
Conditions: for adverse effects during IC continuous infusion / % of patients with FFR ≦ 0.75 / % of patients with FFR ≦ 0.8: guiding catheter study; for % of patients with FFR ≦ 0.75 / % of patients with FFR ≦ 0.8: 240 μg/min (n = 23); for lowest FFR level: lowest mean over the dose response curve, ± 2SEM, P<0.05
Protocol: The study was performed in 23 patients undergoing elective coronary arteriography (CAG) due to repetitive episodes of typical ischemic chest pain or in patients with recent Non-ST Elevated Myocardial Infarction (>2 days from entry into study). In eligible patients with uni- or multivessel coronary artery disease, lesions with stenosis of at least 50% of their diameter and that were thought to require PCI on the basis of angiographic appearance and clinical data were identified.
In the first part of the experiment, FFR and Coronary Flow (velocity, CFR) were measured after the induction of coronary hyperemia by a continuous intracoronary infusion of UTP (Jena Bioscience GmbH, Germany) and adenosine in random order in a guide catheter (5F catheter, Cordis Corp.). Two UTP doses of 240 and 360 μg/min were tested. UTP was prepared by dissolving 100 mg of UTP trisalt (Sigma Aldrich) in 50 ml isotonic NaCl. Of this 50 ml solution, 40 ml was filter sterilized and added to sterile NaCl solution to a final volume of 500 ml, providing a 0.16 mg/ml concentration. 8-10 50 ml syringes of this solution can be prepared (2 syringes per FFR study). 3 ml/min=480 μg/min=0.9 μmol/min. Subjects thus received either 1.5 ml/min of UTP infusion or 2.25 mL/min of UTP infusion for a total of 3 minutes each. Patients also received adenosine (Sigma Aldrich) in the same eqipotent concentration.
All measurements were performed on at least 2 separate occasions to achieve a reproducible result with a mean value calculated. After each measurement, care was taken that APV returned to baseline before the administration of the next dose. For all measurements using both drugs and both routes of administration, changes in heart rate, blood pressure, and ECG were recorded.
In the second part of the experiment, a full dose response curve was generated for a gradual incremental increase in continuous UTP infusion while both CFR and FFR were measured simultaneously prior to percutaneous coronary intervention (PCI). Hyperemia was induced at 80 μg/min of continuous intracoronary UTP and adenosine, and the flow reserve values were compared (Table 1).
In the third part of the experiment, both CFR and FFR were measured simultaneously after percutaneous coronary intervention (PCI). Hyperemia was induced by either 240 or 360 μg/min of continuous intracoronary UTP and equipotent adenosine, and the flow reserve values were in some patients compared with the hyperemic response of a complete, proximal coronary occlusion for 30 s.
FFR is defined as the ratio of hyperemic flow in a stenotic artery to the hyperemic flow in the same artery if there was no stenosis present. FFR therefore expresses maximum hyperemic blood flow in a stenotic vessel as a fraction of its normal value. FFR can be calculated from intracoronary pressure measurements obtained during maximal hyperemia by the following equation: FFR═Pd−Pv/Pa−Pv→Pd/Pa, where Pa is the mean proximal coronary pressure (mean aortic pressure), Pd is the mean distal coronary pressure, and Pv is the mean central venous pressure. The coronary flow (velocity) reserve is the ratio of maximum to baseline hyperemic coronary flow velocity and is used as a surrogate for CFR. Using the Volcano Combomap®, APV throughout the cardiac phase was measured and CFR calculated from APV(hyperemia)/APV(basal).

[1] = mean of six patients, 80 μg/min

O=c1ccn([C@@H]2O[C@H](COP(=O)(O)OP(=O)(O)OP(=O)(O)O)C(O)[C@@H]2O)c(=O)[nH]1 (some centres unmarked) [UTP, Uridine 5-triphosphate]
FFR in comparison to adenosine infusion (all 23 patients, IC 240 μg/min, p=0.003, FIG. 1): significantly decreased
time to induction of maximal hyperemia (all IC continuous infusion rates, versus adenosine): shorter
optimal dose for achieving maximal coronary hyperemia (guide catheter method): 80 to 400 µg/min
adverse effects during IC continuous infusion: None of the UTP-treated patients in the current trial had chest pain, dyspnea, second or 3 degree A-V block or changes in systemic blood pressure and heart rate
% of patients with FFR ≦ 0.75: 47%
% of patients with FFR ≦ 0.8: 65%
FFR (individual patients (row = patient no.), IC continuous infusion 80 μg/min, guide catheter): 0.73 and 0.79 and 0.88 and 0.56
FFR (individual patients, 160 μg/min): 0.90 and 0.73 and 0.79 and 0.86 and 0.56
FFR (individual patients, 240 μg/min): 0.89 (2×) and 0.73 and 0.79 and 0.87 and 0.55
FFR (individual patients, 320 μg/min): 0.90 and 0.89 and 0.72 and 0.77 and 0.86 and 0.56
FFR (individual patients, 400 μg/min): 0.90 and 0.92 and 0.56
lowest FFR level: 0.74±0.13
FFR Mean [1]: 0.74
FFR Mean (mean, 160 μg/min): 0.77
FFR Mean (mean, 240 μg/min): 0.79
FFR Mean (mean, 320 μg/min): 0.78
FFR Mean (mean, 400 μg/min): 0.79
difference in FFR between adenosine and UTP (standard deviation of 0.15-0.17, p=0.003): 0.05

Nc1ncnc2c1ncn2[C@@H]1O[C@H](CO)[C@@H](O)[C@H]1O [adenosine]
adverse effects during IC continuous infusion: most patients felt uncomfortable chest pain and 2 patients had 3 degree A-V block
% of patients with FFR ≦ 0.75: 39%
% of patients with FFR ≦ 0.8: 43%
FFR (individual patients (row = patient no.), IC continuous infusion 80 μg/min, guide catheter, listed as ADO): 0.83 and 0.95 and 0.76 and 0.88
FFR (individual patients, 160 μg/min, listed as ADO): 0.80 and 0.95 and 0.60 and 0.96 and 0.75
FFR (individual patients, 240 μg/min, listed as ADO): 0.81 and 0.94 and 0.60 and 0.87 and 0.91 and 0.71
FFR (individual patients, 320 μg/min, listed as ADO): 0.79 and 0.96 and 0.54 and 1.02 and 0.89 and 0.70
FFR (individual patients, 400 μg/min, listed as ADO): 0.56 and 1.01 and 0.89
lowest FFR level: 0.81±0.11
FFR Mean [1]: 0.86
FFR Mean (mean, 160 μg/min): 0.81
FFR Mean (mean, 240 μg/min): 0.81
FFR Mean (mean, 320 μg/min): 0.82
FFR Mean (mean, 400 μg/min): 0.82
